The values below come from patent US20210198256A1, “COMPOUNDS FOR THE DEGRADATION OF BRD9 OR MTH1” (C4 Therapeutics, Inc., priority 2018, published 2021).

Bounds are passed on as bounds.

In the first assay the target is T1, BRD9 (Homo sapiens, UniProt Q9H8M2).
T1 sequence (Q9H8M2 1-597): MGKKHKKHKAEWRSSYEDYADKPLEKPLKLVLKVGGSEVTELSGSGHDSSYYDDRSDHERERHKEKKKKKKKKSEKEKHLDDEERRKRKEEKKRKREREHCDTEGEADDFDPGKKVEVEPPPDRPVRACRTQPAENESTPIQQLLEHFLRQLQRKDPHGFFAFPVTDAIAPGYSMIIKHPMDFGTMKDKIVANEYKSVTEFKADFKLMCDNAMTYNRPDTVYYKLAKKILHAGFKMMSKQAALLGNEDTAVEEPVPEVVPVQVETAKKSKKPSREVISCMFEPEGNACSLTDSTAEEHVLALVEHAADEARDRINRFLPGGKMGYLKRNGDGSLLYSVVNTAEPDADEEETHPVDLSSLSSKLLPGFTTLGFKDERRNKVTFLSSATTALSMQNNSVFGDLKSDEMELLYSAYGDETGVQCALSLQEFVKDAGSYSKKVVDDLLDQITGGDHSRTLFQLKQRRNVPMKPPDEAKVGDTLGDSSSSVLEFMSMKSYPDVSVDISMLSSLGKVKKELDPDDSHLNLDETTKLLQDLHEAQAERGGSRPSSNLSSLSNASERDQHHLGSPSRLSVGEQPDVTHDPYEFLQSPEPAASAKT
Briefly: HiBit Lytic Assay (HiBit DC50, BRD9 degraders of Table 1). It is filed as cell-based. Particulars: 11-point half log dose response, NanoLuc signal. As to the method: Example 3. HiBit Lytic Assay
• Compound is made at 10 mM, half log dilution, 11 points. • MDR plates can also be ordered from Frontier with same format. • 1. Barcode a 384LDV plate (384-well Low Dead Volume Microplate, Labcyte LP-0200) (Echo compatible) on the left side. • 2. Transfer 13.6 μL of 10 mM compound into column 1 of LDV plate (Labcyte). • 3. Fill column 2-11 and column 23 of MDR plate with 9.30 μL of DMSO. • 4. Serial dilute 3.16 fold from column 1 to 2 by transferring 4.30 μL from column 1 to column 2, and so on to column 11. *Change tip in every dilution to prevent compound carryover effect! • 5. Seal the plate with Plate Sealer, then store the MDR plate at room temperature for short term storage and in −20° C. for long term storage.
• Cells are treated with 30 nL of each compound at 10 mM, half log dilution, 11 points with final concentration of 1000 nM or 833 nM, half log dilution, 11 points, in duplicates. Final DMSO concentration is 0.1%. • 1. Barcode the plates made on the left side and label the plates with silver marker. • 2. Dispense with the following scheme: • a. 30 nL of compound into corresponding wells in cell plates via Echo550 with “MDR32_HiBiT16_30 nL”. Top concentration will be 1000 nM. • 3. Seal the plate with Plate Sealer.
• Cells are dispensed at density specified in Cell Line Table in 384-well microplate. • 1. Culture cells to between 50-80% of confluence in sterile culture flasks of appropriate size. • 2. For Adherent Cell Lines: • a. Aspirate off growth media in culture flask, and wash off the Phenol Red media with 5 mL of 1×PBS. • b. Add 5 mL of Trypsin to the cells, incubate at 37° C. for 5 minutes. • c. Add 5 mL of growth media to the trypsinzed cells, and resuspend. • 3. Remove 10 μL of cells, and resuspend the cells with 10 μL of Trypan Blue. Insert the solution to counting chamber slide, and count the cells via cell counter. • 4. Adjust the cell concentration to specified plating density, and strain the cells with cell strainer. • 5. Dispense the cells via E1-ClipTip™ Electronic Multichannel Pipettes or Multidrop™ Combi Reagent Dispenser with Standard tube dispensing cassette: • a. Prime the cassette with 10-20 mL of ddH2O. • b. Prime the cassette with 10-20 mL of cells. • c. Dispense the cells at low speed for 30 μL/well in Corning® 384 Well Low Flange Black Flat Bottom Polystyrene TC-Treated Microplate. • d. Wash the cassette with 10-20 mL of ddH2O, follow by 10-20 mL of 70% EtOH, then again with 10-20 mL of ddH2O. • 6. Incubate the plates at 37° C.×compound treatment time.
• 1. If not already, bring Nano-Glo® HiBiT Lytic Buffer to room temperature. • 2. Determine the amount of reagent needed. A volume of reagent equal to the volume of media in the well should be added (i.e. 30 μL of cells will need 30 μL of HiBiT Lytic reagent). • 3. Into a given volume of buffer, dilute the substrate 50-fold and the LgBiT protein 100-fold. For example, to make 10 ml of reagent, add the following: • 10 ml Nano-Glo® HiBiT Lytic Buffer • 200 μl Nano-Glo® HiBiT Lytic Substrate • 100 μl LgBiT Protein • The reagent should be reconstituted immediately before use. However, once reconstituted, it should take about 4 hours for the activity to decrease 10%. • 4. Cool down the cell plate to room temperature for 10-15 minutes without lid. • 5. Dispense the HiBiT Lytic Reagent via E1-ClipTip™ Electronic Multichannel Pipettes or Multidrop™ Combi Reagent Dispenser with Standard tube dispensing cassette: • a. Prime the cassette with 10-20 mL of ddH2O. • b. Prime the cassette with 10-20 mL of CTG 2.0. • c. Dispense the HiBiT Lytic Reagent at medium speed for 30 μL/well in cell plate to column 1-23 (column 24 will be used as plate background). • d. Wash the cassette with 10-20 mL of ddH2O, follow by 10-20 mL of 70% EtOH, then again with 10-20 mL of ddH2O. • 6. Incubate the cell plate at room temperature for 10 minutes without lid. • 7. […]
Compound `COc1cc(-c2cn(C)c(=O)c3c2ccn3C)cc(OC)c1CN(C)CC(=O)NCCCCCCCCNC(=O)c1ccc(=O)n(C2CCC(=O)NC2=O)c1` (stereo not drawn) [Compound 218, N-[8-[[2-[[4-(1,6-dimethyl-7-oxo-pyrrolo[2,3-c]pyridin-4-yl)-2,6-dimethoxy-phenyl]methyl-methyl-amino]acetyl]amino]octyl]-1-(2,6-dioxo-3-piperidyl)-6-oxo-pyridine-3-carboxamide] gave a DC50 of less than 1000 nM.

`COc1cc(-c2cn(C)c(=O)c3c2ccn3C)cc(OC)c1CN(C)CC(=O)NCCCCCCCCNc1cccc2c1CN(C1CCC(=O)NC1=O)C2=O` (stereo not drawn) [Compound 220, 2-[[4-(1,6-dimethyl-7-oxo-pyrrolo[2,3-c]pyridin-4-yl)-2,6-dimethoxy-phenyl]methyl-methyl-amino]-N-[8-[[2-(2,6-dioxo-3-piperidyl)-1-oxo-isoindolin-4-yl]amino]octyl]acetamide] gave a DC50 of less than 100 nM.

Turning to `COc1cc(-c2cn(C)c(=O)c3cnccc23)cc(OC)c1CNCC(=O)NCCCCCCCCNc1cccc2c1C(=O)N(C1CCC(=O)NC1=O)C2=O` (stereo not drawn) [Compound 221, 2-[[2,6-dimethoxy-4-(2-methyl-1-oxo-2,7-naphthyridin-4-yl)phenyl]methylamino]-N-[8-[[2-(2,6-dioxo-3-piperidyl)-1,3-dioxo-isoindolin-4-yl]amino]octyl]acetamide], the DC50 was less than 100 nM.

In turn, `COc1cc(-c2cn(C)c(=O)c3cnccc23)cc(F)c1CN(C)CC(=O)NCCCCCCCCNc1cccc2c1C(=O)N(C1CCC(=O)NC1=O)C2=O` (stereo not drawn) [Compound 222, N-[8-[[2-(2,6-dioxo-3-piperidyl)-1,3-dioxo-isoindolin-4-yl]amino]octyl]-2-[[2-fluoro-6-methoxy-4-(2-methyl-1-oxo-2,7-naphthyridin-4-yl)phenyl]methyl-methyl-amino]acetamide] registered a DC50 of less than 100 nM.

For `COc1cc(-c2cn(C)c(=O)c3cnccc23)cc(OC)c1COCC(=O)NCCCCCCCCNc1cccc2c1C(=O)N(C1CCC(=O)NC1=O)C2=O` (stereo not drawn) [Compound 223, 2-[[2,6-dimethoxy-4-(2-methyl-1-oxo-2,7-naphthyridin-4-yl)phenyl]methoxy]-N-[8-[[2-(2,6-dioxo-3-piperidyl)-1,3-dioxo-isoindolin-4-yl]amino]octyl]acetamide], the DC50 is less than 100 nM.

The compound `COc1cc(-c2cn(C)c(=O)c3cnccc23)cc(OC)c1C(C)N(C)CC(=O)NCCCCCCCCNc1cccc2c1C(=O)N(C1CCC(=O)NC1=O)C2=O` (stereo not drawn) [Compound 224, 2-[1-[2,6-dimethoxy-4-(2-methyl-1-oxo-2,7-naphthyridin-4-yl)phenyl]ethyl-methyl-amino]-N-[8-[[2-(2,6-dioxo-3-piperidyl)-1,3-dioxo-isoindolin-4-yl]amino]octyl]acetamide] displayed a DC50 of less than 100 nM.

Regarding `COc1cc(-c2cn(C)c(=O)c(C)n2)cc(OC)c1CN(C)CC(=O)NCCCCCCCCNc1cccc2c1C(=O)N(C1CCC(=O)NC1=O)C2=O` (stereo not drawn) [Compound 225, 2-((4-(4,6-dimethyl-5-oxo-4,5-dihydropyrazin-2-yl)-2,6-dimethoxybenzyl)(methyl)amino)-N-(8-((2-(2,6-dioxopiperidin-3-yl)-1,3-dioxoisoindolin-4-yl)amino)octyl)acetamide], the DC50 was less than 100 nM.

Another assay relates to SMART-CAR_MTH1-WT (Jurkat.2 cells). As to the kind of experiment: HTFC Assay (HTFC DC50). It is filed as cell-based, human. The conditions noted are these: Jurkat.2 (SMART-CAR_MTH1-WT) cells, 4 hours at 37° C., FITC anti-HA staining, flow cytometry. On the procedure: FITC anti-HA.11 epitope tag antibody (Biolegend #901507) FITC Mouse IgG1 k isotope control antibody (Biolegend #400108)
Dry dispense 10 nL/well of compound+90 […] into 96-well V-bottom plates: 4 compounds/plate in 11-point dose response in biological duplicates. Column 12 as DMSO controls.
• 1. Plate Jurkat.2 (SMART-CAR_MTH1-WT) cells with Combi on top of dry dispensed compound: 500,000 cells/mL, 100 uL/well • 2. Incubate for 4 hours at 37° C. • 3. Fixation, permeabilization, and staining: • a. Centrifuge at 1500 rpm for 7 minutes, remove supernatant. • b. Add 100 μl of Fixation/Permeabilization Solution, seal plates, vortex, pulse spin, and incubate at 4° C. for 30 minutes. • c. Centrifuge at 1500 rpm for 7 minutes, remove supernatant. • d. Dilute BD Perm/Wash Buffer to 1× with milliQ water. • e. Wash with 200 uL of BD Perm/Wash Buffer, seal plates, vortex. • f. Centrifuge at 1500 rpm for 7 minutes, remove supernatant. • g. Wash with 200 uL of BD Perm/Wash Buffer, seal plates, vortex. (Option to stop, store at 4° C. if needed) • h. Centrifuge at 1500 rpm for 7 minutes, remove supernatant. • i. Add 50 uL BD Perm/Wash Buffer containing 1:1000 of HA-FITC (Well A12:D12) or IgG-FITC (Well F12:H12) directly conjugated antibody, seal plates, vortex, pulse spin, and incubate at 4° C. for 1 hour. • j. Centrifuge at 1500 rpm for 7 minutes, remove supernatant. • k. Wash with 200 uL of BD Perm/Wash Buffer, seal plates, vortex. • 4. Centrifuge at 1500 rpm for 7 minutes, remove supernatant. • a. Resuspend in 200 ul of BD Perm/Wash Buffer. (Option to stop, store at 4° C. if needed)
• 1. Use analysis from template HTFC file. • 2. Export statistics by going to Tools>Group stats, save as a .csv file with the plate barcode as the name. • 3. Remove all columns from this file except for “Well”, “Sample ID”, “Date”, and “HA+.Mean.Y Mean for HA+ gated by P01.cells”. • 4. Create a New DB Analysis in Scinamic using the “HTFC-Cell Pharm” template. • 5. Load Incyte file “barcode”.csv. • 6. Load Echo file with the generated Echo report (P:\LabData\Echo\Project\SMARTCAR\Echo Report\Labcyte Echo Dose-Response) • 7. Edit Platemap.xlsx with the plate barcodes. • 8. Load Plate Map with this file. • 9. Cleanup compound Ids, mask control outliers, and assign curves.
Using the above assay the HTFC DC50 data was determined for the compounds in Table 2 below.
Example 6: HiBit and HTFC DC50 Data for Representative Compounds of the Present Invention
`CNC(=O)c1cnc2ccc(C(=O)NCC(=O)N3CCN(C(=O)CNc4cccc5c4C(=O)N(C4CCC(=O)NC4=O)C5=O)CC3)cc2c1Nc1ccccc1` (stereo not drawn) [Compound 348, 4-anilino-N6-[2-[4-[2-[[2-(2,6-dioxo-3-piperidyl)-1,3-dioxo-isoindolin-4-yl]amino]acetyl]piperazin-1-yl]-2-oxo-ethyl]-N3-methyl-quinoline-3,6-dicarboxamide] gave a DC50 of less than 100 nM.

Take `CNC(=O)c1cnc2ccc(-c3ccc(C(=O)NCCCCNC(=O)CNc4cccc5c4C(=O)N(C4CCC(=O)NC4=O)C5=O)c(F)c3)cc2c1Nc1ccccc1` (stereo not drawn) [Compound 350, 4-anilino-6-[4-[4-[[2-[[2-(2,6-dioxo-3-piperidyl)-1,3-dioxo-isoindolin-4-yl]amino]acetyl]amino]butylcarbamoyl]-3-fluoro-phenyl]-N-methyl-quinoline-3-carboxamide]: the DC50 is less than 100 nM.
